{"source": "patent US20220281848A1", "about": "“PYRAZOLE-SUBSTITUTED PYRROLIDINONES AS HERBICIDES” (FMC Corporation, priority 2019, published 2022)", "format_in_all_cases": "in vivo", "settings_in_all_cases": "19 to 21 days", "key": {"[1]": {"tested_on": "large (Lg) crabgrass (Digitaria sanguinalis)", "experiment": "Test B preemergence, large crabgrass", "from_the_text": "Seeds of plant species selected from blackgrass (Alopecurus myosuroides), Italian ryegrass (Lolium multiflorum), wheat, winter (winter wheat, Triticum aestivum), corn (Zea mays), large (Lg) crabgrass (Digitaria sanguinalis), giant foxtail (Setaria faberi), johnsongrass (Sorghum halepense), ragweed (common ragweed, Ambrosia elatior), soybean (Glycine max), barnyardgrass (Echinochloa crus-galli), waterhemp (common waterhemp, Amaranthus rudis), palmer pigweed (Amaranthus palmeri), and surinam grass (Brachiaria decumbens), were planted into a silt loam soil and treated preemergence with test chemicals formulated in a non-phytotoxic solvent mixture which included a surfactant.\nTreated plants and controls were maintained in a greenhouse for 19 to 21 days, after which time all species were compared to controls and visually evaluated. Plant response ratings, summarized in Table B, are based on a scale of 0 to 100 where 0 is no effect and 100 is complete control."}, "[2]": {"tested_on": "giant foxtail (Setaria faberi)", "experiment": "Test C preemergence, giant foxtail", "from_the_text": "(§1) Seeds of plant species selected from corn (Zea mays), soybean (Glycine max), velvetleaf (Abutilon theophrasti), palmer pigweed (Amaranthus palmeri), waterhemp (common waterhemp, Amaranthus rudis), surinam grass (Brachiaria decumbens), large (Lg) crabgrass (Digitaria sanguinalis), fall panicum (Panicum dichotomiflorum), giant foxtail (Setaria faberi), ragweed (common ragweed, Ambrosia elatior), barnyardgrass (Echinochloa crus-galli), E. Black Nightshade (Solanum ptycanthum), and horseweed (Conyza canadensis), were planted into a silt loam soil and treated preemergence with test chemicals formulated in a non-phytotoxic solvent mixture which included a surfactant.\n(§2) Treated plants and controls were maintained in a greenhouse for 19 to 21 days, after which time all species were compared to controls and visually evaluated. Plant response ratings, summarized in Table C, are based on a scale of 0 to 100 where 0 is no effect and 100 is complete control."}, "[3]": {"tested_on": "barnyardgrass (Echinochloa crus-galli)", "experiment": "Test C preemergence, barnyardgrass", "from_the_text": "as §1, §2"}}, "data": [{"smiles": "CN1C[C@H](c2cc(C(F)(F)F)n(C)n2)[C@@H](C(=O)Nc2cccc(F)c2F)C1=O", "note": "[Compound 13, (3S,4R)—N-(2,3-difluorophenyl)-1-methyl-4-[1-methyl-5-(trifluoromethyl)-1H-pyrazol-3-yl]-2-oxo-3-pyrrolidinecarboxamide]", "values": [{"measurement": "Plant response rating (0 no effect, 100 complete control) Crabgrass, Large", "setting": "[1]; 16 g ai/ha Preemergence", "value": 100}, {"measurement": "Plant response rating (0 no effect, 100 complete control) Crabgrass, Large", "setting": "[1]; 31 g ai/ha Preemergence", "value": 100}, {"measurement": "Plant response rating (0 no effect, 100 complete control) Crabgrass, Large", "setting": "[1]; 62 g ai/ha Preemergence", "value": 100}, {"measurement": "Plant response rating (0 no effect, 100 complete control) Crabgrass, Large", "setting": "[1]; 125 g ai/ha Preemergence", "value": 100}, {"measurement": "Plant response rating (0 no effect, 100 complete control) Foxtail, Giant", "setting": "[2]; 4 g ai/ha Preemergence", "value": 0}, {"measurement": "Plant response rating (0 no effect, 100 complete control) Foxtail, Giant", "setting": "[2]; 8 g ai/ha Preemergence", "value": 55}, {"measurement": "Plant response rating (0 no effect, 100 complete control) Foxtail, Giant", "setting": "[2]; 16 g ai/ha Preemergence", "value": 73}, {"measurement": "Plant response rating (0 no effect, 100 complete control) Foxtail, Giant", "setting": "[2]; 31 g ai/ha Preemergence", "value": 88}, {"measurement": "Plant response rating (0 no effect, 100 complete control) Foxtail, Giant", "setting": "[2]; 62 g ai/ha Preemergence", "value": 95}, {"measurement": "Plant response rating (0 no effect, 100 complete control) Foxtail, Giant", "setting": "[2]; 125 g ai/ha Preemergence", "value": 95}, {"measurement": "Plant response rating (0 no effect, 100 complete control) Barnyardgrass", "setting": "[3]; 4 g ai/ha Preemergence", "value": 0}, {"measurement": "Plant response rating (0 no effect, 100 complete control) Barnyardgrass", "setting": "[3]; 8 g ai/ha Preemergence", "value": 28}, {"measurement": "Plant response rating (0 no effect, 100 complete control) Barnyardgrass", "setting": "[3]; 16 g ai/ha Preemergence", "value": 63}, {"measurement": "Plant response rating (0 no effect, 100 complete control) Barnyardgrass", "setting": "[3]; 31 g ai/ha Preemergence", "value": 68}, {"measurement": "Plant response rating (0 no effect, 100 complete control) Barnyardgrass", "setting": "[3]; 62 g ai/ha Preemergence", "value": 97}, {"measurement": "Plant response rating (0 no effect, 100 complete control) Barnyardgrass", "setting": "[3]; 125 g ai/ha Preemergence", "value": 97}]}]}
